pEC50: −log10 of the molar value. Values after ≈ are worked out from the molar mass of the structure shown.
Legend:
Alpha glucosidase [1] = target: T1, Alpha glucosidase (Homo sapiens, UniProt O43451+P10253+P14410+Q2M2H8); assay: Inhibition of alpha glucosidase (unknown origin) using p-nitrophenyl glucopyranoside as substrate by UV based microplate reader analysis; format: protein assay
Homo sapiens = species on record: Homo sapiens; assay: Inhibition of beta-glucosidase (unknown origin) assessed as residual activity at 100 uM […] incubated for 1 hr followed by substrate addition and measured after 5 mins by spectrophotometer analysis relative to control; conditions: time 65.0 hrs
Alpha glucosidase [2] = target: T1, Alpha glucosidase; assay: Inhibition of alpha glucosidase (unknown origin) using p-nitrophenyl glucopyranoside as substrate by multimode plate reader analysis; format: protein assay
[3] = target: T2, Glucose-dependent insulinotropic receptor (Homo sapiens, UniProt Q8TDV5); assay: Agonist activity at human GPR119 incubated for 2 hrs by luciferase reporter gene assay
T2 sequence (Q8TDV5 whole entry): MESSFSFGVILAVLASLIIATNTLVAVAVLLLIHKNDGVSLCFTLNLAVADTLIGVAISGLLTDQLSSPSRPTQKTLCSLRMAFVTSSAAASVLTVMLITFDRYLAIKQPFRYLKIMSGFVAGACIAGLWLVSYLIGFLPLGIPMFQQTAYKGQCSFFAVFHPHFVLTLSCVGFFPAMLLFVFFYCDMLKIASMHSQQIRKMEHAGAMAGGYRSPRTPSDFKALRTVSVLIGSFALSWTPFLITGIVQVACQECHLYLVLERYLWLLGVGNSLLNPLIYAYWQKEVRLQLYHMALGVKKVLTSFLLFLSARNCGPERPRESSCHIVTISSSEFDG

[4] = target: Aldo-keto reductase family 1 member B1 (Homo sapiens) (UniProt P15121); assay: Inhibition of Aldose reductase (unknown origin) using DL-Glyceraldehyde as substrate incubated for 5 mins in presence of NADPH by spectrophotometer analysis
Mus musculus = assay: Antidiabetic activity in mouse assessed as reduction in blood glucose level at 100 mg/kg, po bid measured up to 21 days; format: functional; set-up: scale not given: the % may be the effect or the level left; conditions: time <= 21 day
Alpha glucosidase [5] = target: T1, Alpha glucosidase; assay: Inhibition of alpha glucosidase (unknown origin) using p-nitrophenyl glucopyranoside as substrate by UV Vis- spectrophotometer analysis; format: protein assay
Alpha glucosidase [6] = target: T1, Alpha glucosidase; assay: Inhibition of alpha glucosidase (unknown origin) using p-nitrophenyl glucopyranoside as substrate preincubated for 15 mins followed by substrate addition and measured after 30 mins by spectrophotometer analysis; format: protein assay

## Cc1ccnc(NC(=O)CSc2nnc(CCCc3c[nH]c4ccccc34)o2)c1
Alpha glucosidase [1]
  IC50: 9.37 µM

## COC(=O)[C@H](Cc1c[nH]c2ccccc12)NC(=O)c1cccc([N+](=O)[O-])c1
Homo sapiens
  Activity: 37%

## Clc1ccc2c(c1)NC(c1c[nH]c3ccccc13)OC2 (configuration not stated)
Alpha glucosidase [2]
  IC50: 11.5 µM

## c1ccc2c(c1)COC(c1c[nH]c3ccccc13)N2 (configuration not stated)
Alpha glucosidase [2]
  IC50: 11.5 µM

## Cc1[nH]c2ccccc2c1C1Nc2ccccc2CO1 (configuration not stated)
Alpha glucosidase [2]
  IC50: 11.5 µM

## CCc1cnc(N2CCC(C(C)COC(=O)N3CCc4cc(S(C)(=O)=O)ccc43)CC2)nc1 (configuration not stated)
[3]
  pEC50: 8.41

## O=Cc1c(-c2ccccc2)[nH]c2ccccc12
[4]
  inhibition: 7.6%

## Cc1ccc2c(c1)COC(c1c(C)[nH]c3ccccc13)N2 (configuration not stated)
Alpha glucosidase [2]
  IC50: 11.5 µM

## O=C1Nc2ccccc2/C1=N/NC(=S)N/N=C/c1ccc(Cl)cc1
Mus musculus
  Activity: 29.6%

## O=C(N[C@@H](Cc1c[nH]c2ccccc12)C(=O)O)c1cccc(Cl)c1
Homo sapiens
  Activity: 49%

## Brc1ccc(-c2csc(-n3nc(-c4ccccc4)cc3-c3c[nH]c4ccccc34)n2)cc1
Alpha glucosidase [5]
  IC50: 236.1 µg/mL (≈ 475 µM)

## Cc1ccc2c(c1)COC(c1c(-c3ccccc3)[nH]c3ccccc13)N2 (configuration not stated)
Alpha glucosidase [2]
  IC50: 11.5 µM

## O=C1Nc2ccccc2C1(c1cn(Cc2ccccc2F)c2ccccc12)c1cn(Cc2ccccc2F)c2ccccc12
Alpha glucosidase [6]
  IC50: 5.98 µM

## Clc1ccc2c(c1)COC(c1c(-c3ccccc3)[nH]c3ccccc13)N2 (configuration not stated)
Alpha glucosidase [2]
  IC50: 11.5 µM

## Nc1ccc(-c2cc3ccccc3[nH]2)cc1
[4]
  inhibition: 11%

## Cc1cccc(NC(=O)CSc2nnc(CCCc3c[nH]c4ccccc34)o2)c1C
Alpha glucosidase [1]
  IC50: 9.46 µM

## O=[N+]([O-])c1cc(-c2cc3ccccc3[nH]2)ccc1Cl
[4]
  inhibition: 5.3%

— ChEMBL document CHEMBL5241086, “Research progress of indole compounds with potential antidiabetic activity” (Eur J Med Chem, 2021)
